# Where two headings read alike, the source gives them in different places.
# Assays:
# [1] = target: MELK (Homo sapiens, UniProt Q14680); assay: Kinase assay: MELK activity, phosphorylation of FITC-labeled histone H3 peptide measured by IMAP fluorescence polarization; format: biochemical; details: read-out: IC50 (μM) (kinase assay)
# Protocol: MELK activity was determined in the presence or absence of compounds using fluorescein isothiocyanate-labeled (FITC-labeled) histone H3 peptide as a substrate. […] Test compounds were dissolved in DMSO at 12.5 mM and then serially diluted as the DMSO concentration in the assays to be 1%. […] The reaction was stopped by the addition of three fold assay volume of progressive binding solution. Following 0.5 hour incubation at room temperature, fluorescence polarization was measured by Wallac EnVision 2103 multilabel reader (PerkinElmer).
# [2] = test system: T47D cells; assay: Cell-based assay: anti-proliferative activity, Cell Counting Kit-8, 72 hours (T47D); details: Homo sapiens, T47D, 72 h
# Protocol: (§1) To evaluate the expression status of MELK in several cell lines, western blot analysis was performed using crude cell lysate collected from those cells. Anti-MELK antibody (clone 31, BD Biosciences) was used to visualize the expression.
# (§2) Active candidate inhibitors against MELK were evaluated for their target-specific cytotoxicity using T47D, A549, BT-549, and HT-1197 cells was used for negative control. 100 micro-L of cell suspension was seeded onto 96-well microtiter plate (ViewPlate-96FTC, PerkinElmer). The initial cell concentration of T47D, A549, BT-549, and HT-1197 were 3,000 cells/well, 2,000 cells/well and 2,500 cells/well, respectively. Cellular growth was determined using Cell Counting Kit-8 (DOJINDO) at 72 hours after the exposure of the candidate inhibitors. […] Accurate IC50 values were calculated as described previously.
# [3] = test system: A549 cells; assay: Cell-based assay: anti-proliferative activity, Cell Counting Kit-8, 72 hours (A549); details: Homo sapiens, A549, 72 h, 72 hours
# Protocol: as §2, with “100” for “Active candidate inhibitors against MELK were evaluated for their target-specific cytotoxicity using T47D, A549, BT-549, and HT-1197 cells was used for negative control. 100”
# [4] = test system: HT-1197 cells; assay: Cell-based assay: anti-proliferative activity, Cell Counting Kit-8, 72 hours (HT-1197, negative control without MELK expression); details: Homo sapiens, HT1197, 72 h, 72 hours
# Protocol: as §1, §2
# [5] = 50 micro-M ATP, FITC-labeled histone H3 peptide substrate, IMAP fluorescence polarization
# [6] = HT1197 cells (negative control, no MELK expression)
# [7] = HT1197 cells (negative control)
# Sequence of MELK (Q14680 whole entry, looked up): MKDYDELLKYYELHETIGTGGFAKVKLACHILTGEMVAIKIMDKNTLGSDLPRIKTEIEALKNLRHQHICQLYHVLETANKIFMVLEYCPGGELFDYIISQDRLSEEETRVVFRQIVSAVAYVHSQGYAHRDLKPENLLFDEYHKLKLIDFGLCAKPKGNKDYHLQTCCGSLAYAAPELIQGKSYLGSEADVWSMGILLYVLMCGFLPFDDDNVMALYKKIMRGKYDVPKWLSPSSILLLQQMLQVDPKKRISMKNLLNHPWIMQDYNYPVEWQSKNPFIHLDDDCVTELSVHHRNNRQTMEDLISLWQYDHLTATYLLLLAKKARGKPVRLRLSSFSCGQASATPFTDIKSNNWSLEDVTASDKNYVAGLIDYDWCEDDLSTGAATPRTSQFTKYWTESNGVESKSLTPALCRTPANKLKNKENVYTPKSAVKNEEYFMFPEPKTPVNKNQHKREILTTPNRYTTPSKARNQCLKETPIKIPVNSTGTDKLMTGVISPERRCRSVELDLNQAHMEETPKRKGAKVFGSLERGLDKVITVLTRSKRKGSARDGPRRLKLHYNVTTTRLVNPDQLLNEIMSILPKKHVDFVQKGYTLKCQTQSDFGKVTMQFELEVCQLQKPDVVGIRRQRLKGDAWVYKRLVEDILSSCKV
SMILES,"IC50 [1, 5]",IC50 [2],IC50 [3],"IC50 [4, 6]",IC50 [1],"IC50 [4, 7]","IC50 ([1]; MELK kinase assay, IMAP fluorescence polarization, 50 micro-M ATP)"
"CN(C)Cc1ccc(Nc2c(C(=O)C3CC3)cnc3ccc(-c4cnc(C#N)nc4)cc23)nc1 [Example 439, 5-(3-(cyclopropanecarbonyl)-4-(5-((dimethylamino)methyl)pyridin-2-ylamino)quinolin-6-yl)pyrimidine-2-carbonitrile]",0.058 µM,0.61 µM,4 µM,3.6 µM,–,–,–
CN[C@H]1CC[C@H](Nc2c(C(C)=O)cnc3ccc(-c4cc(F)c(O)c(Cl)c4)cc23)CC1 [Example 560],–,0.041 µM,–,–,0.11 µM,10 µM,–
"CCCC(=O)c1cnc2ccc(-c3cc(Cl)c(O)c(Cl)c3)cc2c1Nc1ccc(N2CCNCC2)nc1 [Example 625, 1-(6-(3,5-dichloro-4-hydroxyphenyl)-4-(6-(piperazin-1-yl)pyridin-3-ylamino)quinolin-3-yl)butan-1-one]",–,1.5 µM,–,–,0.15 µM,10 µM,–
"CC(=O)c1cnc2ccc(-c3cnc(C#N)nc3)cc2c1Nc1ccc(CN2CCCC2)cc1 [Example 413, 5-(3-acetyl-4-(4-(pyrrolidin-1-ylmethyl)phenylamino)quinolin-6-yl)pyrimidine-2-carbonitrile]",0.0029 µM,0.35 µM,1.7 µM,1.2 µM,–,–,–
"CN(C)CC(=O)N1CCN(c2c(C(=O)C3CC3)cnc3ccc(-c4ccc(O)c(Cl)c4)cc23)CC1 [Example 441, 1-(4-(6-(3-chloro-4-hydroxyphenyl)-3-(cyclopropanecarbonyl)quinolin-4-yl)piperazin-1-yl)-2-(dimethylamino)ethanone]",0.004 µM,0.63 µM,0.54 µM,46 µM,–,–,–
"COc1cc(-c2ccc3ncc(C(C)=O)c(Nc4ccc(CN5CCCC5)cc4)c3c2)cc(Cl)c1O [Example 419, 1-(6-(3-chloro-4-hydroxy-5-methoxyphenyl)-4-(4-(pyrrolidin-1-ylmethyl)phenylamino)quinolin-3-yl)ethanone]",–,0.99 µM,0.84 µM,5.1 µM,–,–,–
CN(C)CC1CCN(c2c(C(=O)C3CC3)cnc3ccc(-c4ccc5c(c4)CC(=O)N5)cc23)CC1 [Example 474],–,10 µM,–,10 µM,–,–,–
N[C@H]1CC[C@H](Nc2c(C(=O)C3CC3)cnc3c(F)cc(-c4cc(F)c(O)c(Cl)c4)cc23)CC1 [Example 555],–,0.44 µM,–,–,5.1 µM,10 µM,–
"COc1cc(-c2ccc3ncc(C(=O)C4CC4)c(-c4cn[nH]c4)c3c2)cc(Cl)c1O [Example 536, (6-(3-chloro-4-hydroxy-5-methoxyphenyl)-4-(1H-pyrazol-4-yl)quinolin-3-yl)(cyclopropyl)methanone]",–,1.3 µM,–,–,0.11 µM,14 µM,–
"COc1cc(-c2cc(F)c3ncc(C(=O)C4CC4)c(Nc4ccc(CN(C)C)cc4)c3c2)cc(Cl)c1O [Example 551, (6-(3-chloro-4-hydroxy-5-methoxyphenyl)-4-(4-((dimethylamino)methyl)phenylamino)-8-fluoroquinolin-3-yl)(cyclopropyl)methanone]",–,2 µM,–,–,1.1 µM,6.9 µM,–
"CC(=O)c1cnc2ccc(-c3cnc(C#N)nc3)cc2c1Nc1ccc(CN(C)C)cc1 [Example 414, 5-(3-acetyl-4-(4-((dimethylamino)methyl)phenylamino)quinolin-6-yl)pyrimidine-2-carbonitrile]",–,0.24 µM,1.5 µM,0.8 µM,–,–,–
"COC(=O)c1ccc(-c2ccc3ncc(C(=O)C4CC4)c(N4CCC(CN(C)C)CC4)c3c2)cc1 [Example 481, methyl 4-(3-(cyclopropanecarbonyl)-4-(4-((dimethylamino)methyl)piperidin-1-yl)quinolin-6-yl)benzoate]",–,10 µM,–,10 µM,1.4 µM,–,–
"O=C(c1cnc2ccc(-c3cc(F)c(O)c(Cl)c3)cc2c1NC1CCC(N2CCC(F)(F)C2)CC1)C1CC1 (centres unmarked) [Example 675, (6-(3-chloro-5-fluoro-4-hydroxyphenyl)-4-(4-(3,3-difluoropyrrolidin-1-yl)cyclohexylamino)quinolin-3-yl)(cyclopropyl)methanone]",–,0.8 µM,–,4.4 µM,0.83 µM,–,–
"CN(C)Cc1ccc(Nc2c(C(=O)C3CC3)cnc3c(F)cc(-c4cc(Cl)c(O)c(Cl)c4)cc23)cc1 [Example 552, cyclopropyl(6-(3,5-dichloro-4-hydroxyphenyl)-4-(4-((dimethylamino)methyl)phenylamino)-8-fluoroquinolin-3-yl)methanone]",–,1.1 µM,–,–,0.58 µM,9 µM,–
"CN(C)Cc1ccc(Nc2c(C(=O)C3CC3)cnc3c(F)cc(-c4cc(F)c(O)c(Cl)c4)cc23)cc1 [Example 563, (6-(3-chloro-5-fluoro-4-hydroxyphenyl)-4-(4-((dimethylamino)methyl)phenylamino)-8-fluoroquinolin-3-yl)(cyclopropyl)methanone]",–,1.3 µM,–,–,1.8 µM,3.3 µM,–
"COc1cc(-c2ccc3ncc(C(=O)C4CC4)c(NCC(=O)N4CCN(C)CC4)c3c2)cc(Cl)c1O [Example 395, 2-(6-(3-chloro-4-hydroxy-5-methoxyphenyl)-3-(cyclopropanecarbonyl)quinolin-4-ylamino)-1-(4-methylpiperazin-1-yl)ethanone]",1 µM,10 µM,–,10 µM,–,–,–
CN(C)CC1CCN(c2c(C(=O)C3CC3)cnc3ccc(-c4ccc(OC(F)F)cc4)cc23)CC1 [Example 458],–,7.2 µM,–,8.4 µM,–,–,–
"COc1cc(-c2ccc3ncc(C(=O)C4CC4)c(NC4CCC(N5CCC(F)(F)C5)CC4)c3c2)cc(Cl)c1O (centres unmarked) [Example 676, (6-(3-chloro-4-hydroxy-5-methoxyphenyl)-4-(4-(3,3-difluoropyrrolidin-1-yl)cyclohexylamino)quinolin-3-yl)(cyclopropyl)methanone]",–,1 µM,–,11 µM,0.29 µM,–,–
N[C@H]1CC[C@H](Nc2c(C(=O)C3CC3)cnc3c(F)cc(-c4cc(Cl)c(O)c(Cl)c4)cc23)CC1 [Example 565],–,0.3 µM,–,–,2.1 µM,10 µM,–
"CN1CCN(C(=O)CNc2c(C(=O)C3CC3)cnc3ccc(-c4ccc(O)c(Cl)c4)cc23)CC1 [Example 393, 2-(6-(3-chloro-4-hydroxyphenyl)-3-(cyclopropanecarbonyl)quinolin-4-ylamino)-1-(4-methylpiperazin-1-yl)ethanone]",0.095 µM,2.6 µM,2.2 µM,–,–,–,–
"CN(C)CC1CCN(c2c(C(=O)C3CC3)cnc3ccc(-c4ccc(C(=O)O)cc4)cc23)CC1 [Example 492, 4-(3-(cyclopropanecarbonyl)-4-(4-((dimethylamino)methyl)piperidin-1-yl)quinolin-6-yl)benzoic acid]",–,10 µM,–,10 µM,1.4 µM,–,–
COc1cc(-c2cc(F)c3ncc(C(=O)C4CC4)c(N[C@H]4CC[C@H](N)CC4)c3c2)cc(Cl)c1O [Example 564],–,0.43 µM,–,–,0.26 µM,1.8 µM,–
Cc1cc(O)c(Cl)cc1-c1ccc2ncc(C(=O)C3CC3)c(N3CCC(CN(C)C)CC3)c2c1 [Example 448],–,2 µM,1.7 µM,7.9 µM,–,–,–
COc1cc(-c2ccc3ncc(C(=O)C4CC4)c(Nc4ccc(C5CCCN5C)cn4)c3c2)cc(Cl)c1O (centres unmarked) [Example 444],–,6.8 µM,7.6 µM,10 µM,–,–,–
"O=C(c1cnc2ccc(-c3cc(Cl)c(O)c(Cl)c3)cc2c1Nc1ccc(CN2CCC(F)(F)C2)cc1)C1CC1 [Example 581, cyclopropyl(6-(3,5-dichloro-4-hydroxyphenyl)-4-(4-((3,3-difluoropyrrolidin-1-yl)methyl)phenylamino)quinolin-3-yl)methanone]",–,1.4 µM,–,–,0.63 µM,5.3 µM,–
CN(C)CC1CCN(c2c(C(=O)C3CC3)cnc3ccc(-c4ccc(C(F)F)cc4)cc23)CC1 [Example 465],0.91 µM,8.6 µM,–,5.6 µM,–,–,–
"O=C(c1cnc2ccc(-c3cc(Cl)c(O)c(Cl)c3)cc2c1NC1CCC(N2CCC(F)(F)C2)CC1)C1CC1 (centres unmarked) [Example 664, cyclopropyl(6-(3,5-dichloro-4-hydroxyphenyl)-4-(4-(3,3-difluoropyrrolidin-1-yl)cyclohexylamino)quinolin-3-yl)methanone]",–,1.7 µM,–,10 µM,0.14 µM,–,–
CN(C)C[C@H]1CC[C@H](Nc2c(C(=O)C3CC3)cnc3cc(C(F)(F)F)c(-c4cc(Cl)c(O)c(Cl)c4)cc23)CC1 [Example 842],–,–,–,–,–,–,0.93 µM

# From patent publication US9120749B2, “Quinoline derivatives and MELK inhibitors containing the same” (ONCOTHERAPY SCIENCE, INC., priority 2010, dated 2015)
